In patent US20160298129A1, “ALS INHIBITOR HERBICIDE TOLERANT MUTANT PLANTS” (BAYER CROPSCIENCE NV, priority 2013, published 2016):
Changes are numbered by the printed parent chain. Names may count otherwise.

B1: D376E: AHAS protein with glutamic acid instead of aspartic acid at position 376 of SEQ ID NO: 10 (protein, listed as Arabidopsis thaliana)
chain: MAAATTTTTTSSSISFSTKPSPSSSKSPLPISRFSLPFSLNPNKSSSSSRRRGIKSSSPSSISAVLNTTTNVTTTPSPTKPTKPETFISRFAPDQPRKGADILVEALERQGVETVFAYPGGASMEIHQALTRSSSIRNVLPRHEQGGVFAAEGYARSSGKPGICIATSGPGATNLVSGLADALLDSVPLVAITGQVPRRMIGTDAFQETPIVEVTRSITKHNYLVMDVEDIPRIIEEAFFLATSGRPGPVLVDVPKDIQQQLAIPNWEQAMRLPGYMSRMPKPPEDSHLEQIVRLISESKKPVLYVGGGCLNSSDELGRFVELTGIPVASTLMGLGSYPCDDELSLHMLGMHGTVYANYAVEHSDLLLAFGVRFDERVTGKLEAFASRAKIVHIDIDSAEIGKNKTPHVSVCGDVKLALQGMNKVLENRAEELKLDFGVWRNELNVQKQKFPLSFKTFGEAIPPQYAIKVLDELTDGKAIISTGVGQHQMWAAQFYNYKKPRQWLSSGGLGAMGFGLPAAIGASVANPDAIVVDIDGDGSFIMNVQELATIRVENLPVKVLLLNNQHLGMVMQWQDRFYKANRAHTFLGDPAQEDEIFPNMLLFAAACGIPAARVTKKADLREAIQTMLDTPGPYLLDVICPHQEHVLPMIPSGGTFNDVITEGDGRIKY
B2: P197S: AHAS protein with serine instead of proline at position 197 of SEQ ID NO: 10 (protein, listed as Arabidopsis thaliana)
chain: B1 chain with P197S, E376D
B3: W574L: AHAS protein with leucine instead of tryptophan at position 574 of SEQ ID NO: 10 (protein, listed as Arabidopsis thaliana)
chain: B1 chain with E376D, W574L

Assays:
AHAS W574L = AHAS W574L (Arabidopsis thaliana, UniProt P17597, E575Q/W574L); type: biochemical
Experimental: (§1) Bacteria are grown at 37° C. in LB-medium containing 100 mg/l carbenicillin and 25 mg/l canamycin, induced with 1 mM isopropyl-β-D-thiogalactopyranoside at an OD600 of 0.6, cultivated for 16 hours at 18° C. and harvested by, e.g., centrifugation. Bacterial pellets are resuspended in 100 mM sodium phosphate buffer pH 7.0 containing 0.1 mM thiamine-pyrophosphate, 1 mM MgCl2, and 1 μM FAD at a concentration of 1 gram wet weight per 25 ml of buffer and disrupted by, e.g., sonification. The crude protein extract obtained after centrifugation is used for ALS activity measurements.
(§2) ALS protein can be extracted from leaves or tissue cultures, such as B. napus or B. juncea leaves, or B. napus or B. juncea tissue cultures as described by Ray (Plant Physiol, 1984, 75:827-831). An ALS assays can be carried out in 96-well microtiter plates using a modification of the procedure described by Ray (1984): The reaction mixture contains 20 mM potassium phosphate buffer pH 7.0, 20 mM sodium pyruvate, 0.45 mM thiamine-pyrophosphate, 0.45 mM MgCl2, 9 μM FAD. ALS enzyme and various concentrations of ALS inhibitors can be mixed in a final volume of 90 μl Assays can be initiated by adding enzyme and the assays can be terminated after 75 min incubation at 30° C. by the addition of 40 μl 0.5 M H2SO4.

AHAS P197S = AHAS P197S (Arabidopsis thaliana, UniProt P17597, E575Q/P197S); type: biochemical
Experimental: as §1, §2

AHAS P197S-D376E = AHAS P197S-D376E (Arabidopsis thaliana, UniProt P17597, D376E/E575Q/P197S); test: biochemical; settings: for Resistance Factor / pI50: AHAS P197S-D376E
Experimental: as §1, §2

AHAS WT [1] = molecular target: AHAS WT (Arabidopsis thaliana, UniProt P17597, E575Q); test: biochemical; settings: AHAS WT
Experimental: as §1, §2

AHAS P197S-D376E-W574L = AHAS P197S-D376E-W574L (Arabidopsis thaliana, UniProt P17597, D376E/E575Q/P197S/W574L); test: biochemical; settings: for Resistance Factor / pI50: AHAS P197S-D376E-W574L
Experimental: as §1, §2

AHAS P197S-W574L = AHAS P197S-W574L (Arabidopsis thaliana, UniProt P17597, E575Q/P197S/W574L); test: biochemical; settings: for Resistance Factor / pI50: AHAS P197S-W574L
Experimental: as §1, §2

AHAS D376E = AHAS D376E (Arabidopsis thaliana, UniProt P17597, D376E/E575Q); test: biochemical; settings: for Resistance Factor / pI50: AHAS D376E
Experimental: as §1, §2

AHAS D376E-W574L = AHAS D376E-W574L (Arabidopsis thaliana, UniProt P17597, D376E/E575Q/W574L); test: biochemical; settings: for Resistance Factor / pI50: AHAS D376E-W574L
Experimental: as §1, §2

[2] = test system: WT tissues (hypocotyl derived callus); test: Callus culture on Foramsulfuron selection medium; type: cell-based, Brassica napus; settings: 250 nM in M-338 [H76] medium
Experimental: Five day old seedlings were used for the preparation of hypocotyl segments 7-10 mm in length. Hypocotyl segments were transferred to 14 cm Petri plates containing 75 ml of M-338 [H76] callus induction medium (25 explants/plate). M-338 [H76] medium is MS salts and vitamins (Murashige and Skoog, 1962), 20 g/l sucrose, 0.5 g/l MES, 0.5 g/l adenine sulphate, 5 mg/l silver nitrate, 0.5 mg/l 2,4-D, 0.2 mg/l kinetin and solidified with 5.5 g/l agarose (pH 5.7). Dishes were sealed and cultured at 24° C. with standard light conditions (16 h/day). After 3 weeks, calli developing at the ends of the explants were transferred to fresh M-338 [H76] plates (25 calli/plate). Calli were subcultured to fresh medium every 3 weeks (larger calli cut into two pieces).
Hypocotyl derived callus (9 weeks old) was used for the selection of herbicide resistant mutants. […] Dishes were cultured at 24° C. with standard light conditions (16 h/day). After 3 weeks, the calli were divided into 2 pieces each and replated on M-338 [H76] medium containing 1.0 μM Foramsulfuron. Further increases in Foramsulfuron concentration (e.g. 1.5 μM, 2.0 μM, 2.5 μM, 3.0 μM or higher) were made each subculture until rapidly growing green (resistant) calli could clearly be identified from the brown non-resistant tissues.

AHAS WT [3] = molecular target: AHAS WT (Arabidopsis thaliana, UniProt P17597); test: biochemical
Experimental: as §1, §2

[4] = test system: oilseed rape homozygous for HETO132 and HETO134 (132-134); test: Field herbicide tolerance, visible phytotoxicity (ALS I W574L, ALS III P197S-W574L); type: in vivo, Brassica napus; settings: gai/ha: imazamox 40, bispyribac-sodium 50, propoxycarbazone-sodium 70, mesosulfuron-methyl 60, pyroxsulam 12.5 + cloquintocet-mexyl 37.5, each + rapeseed oil methylated 366.5
Text: (§3) Seeds of spring oilseed rape homozygous for HETO139 and HETO134 were sown in a field according to typical practical agricultural methods together with seeds homozygous for HETO134 and HETO133 (comprising a W574L mutation on ALS III, which were obtained in the same way as HETO134), and with seeds homozygous for HETO134 and HETO132 (comprising a P197S and a W574L mutation on ALS III, which were obtained in essentially the same way as HETO139). Several ALS inhibitor herbicides were applied to the oilseed rape plants by using specific spray equipment for small plot applications.

[5] = test system: oilseed rape homozygous for HETO139 and HETO134 (139-134); test: Field herbicide tolerance, visible phytotoxicity (ALS I W574L, ALS III P197S-D376E); type: in vivo, Brassica napus; settings: gai/ha: imazamox 40, bispyribac-sodium 50, propoxycarbazone-sodium 70, mesosulfuron-methyl 60, pyroxsulam 12.5 + cloquintocet-mexyl 37.5, each + rapeseed oil methylated 366.5
Text: as §3

[6] = test system: oilseed rape homozygous for HETO133 and HETO134 (133-134); test: Field herbicide tolerance, visible phytotoxicity (ALS I W574L, ALS III W574L); type: in vivo, Brassica napus; settings: gai/ha: imazamox 40, bispyribac-sodium 50, propoxycarbazone-sodium 70, mesosulfuron-methyl 60, pyroxsulam 12.5 + cloquintocet-mexyl 37.5, each + rapeseed oil methylated 366.5
Text: as §3

[7] = test system: wild-type (WT) oilseed rape; test: Field herbicide tolerance, visible phytotoxicity; type: in vivo, Brassica napus; settings: gai/ha: imazamox 40, bispyribac-sodium 50, propoxycarbazone-sodium 70, mesosulfuron-methyl 60, pyroxsulam 12.5 + cloquintocet-mexyl 37.5, each + rapeseed oil methylated 366.5
AHAS enzymatic activity = test: Kinetic parameters of enzymatic activity of AHAS mutants; type: biochemical
Experimental: The ALS inhibitor sensitivity and kinetic parameters of AHAS proteins comprising the P197S mutation, the W574L mutation, the D376E mutation, and combinations thereof in one protein, were determined essentially as described in WO 2013/127766.

Sequence of AHAS W574L (P17597 56-670 W574L/E575Q): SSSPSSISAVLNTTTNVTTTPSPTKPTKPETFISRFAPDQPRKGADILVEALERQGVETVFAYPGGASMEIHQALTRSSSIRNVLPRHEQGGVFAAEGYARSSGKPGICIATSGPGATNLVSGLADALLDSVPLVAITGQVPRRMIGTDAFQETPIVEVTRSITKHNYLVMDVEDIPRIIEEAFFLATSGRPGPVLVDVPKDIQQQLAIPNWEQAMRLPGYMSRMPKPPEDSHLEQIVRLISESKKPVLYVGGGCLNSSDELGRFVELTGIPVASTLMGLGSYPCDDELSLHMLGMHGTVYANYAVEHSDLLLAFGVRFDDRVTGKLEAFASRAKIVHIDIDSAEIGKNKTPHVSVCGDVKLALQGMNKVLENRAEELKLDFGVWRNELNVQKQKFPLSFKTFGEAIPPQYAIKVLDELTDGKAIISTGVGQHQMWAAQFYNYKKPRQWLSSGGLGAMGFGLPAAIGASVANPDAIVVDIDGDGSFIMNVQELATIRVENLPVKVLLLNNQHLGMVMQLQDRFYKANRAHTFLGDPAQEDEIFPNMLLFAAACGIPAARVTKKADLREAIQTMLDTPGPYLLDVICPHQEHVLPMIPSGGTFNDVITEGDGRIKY
Sequence of AHAS D376E-W574L (P17597 56-670 D376E/W574L/E575Q): as the sequence (P17597 56-670 W574L/E575Q) above, with D321E counted along it
Sequence of AHAS P197S-D376E (P17597 56-670 P197S/D376E/E575Q): as the sequence (P17597 56-670 W574L/E575Q) above, with P142S, D321E, L519W counted along it
Sequence of AHAS P197S-W574L (P17597 56-670 P197S/W574L/E575Q): as the sequence (P17597 56-670 W574L/E575Q) above, with P142S counted along it
Sequence of AHAS P197S (P17597 56-670 P197S/E575Q): as the sequence (P17597 56-670 W574L/E575Q) above, with P142S, L519W counted along it
Sequence of AHAS WT (Arabidopsis thaliana, UniProt P17597) (P17597 56-670 E575Q): as the sequence (P17597 56-670 W574L/E575Q) above, with L519W counted along it
Sequence of AHAS P197S-D376E-W574L (P17597 56-670 P197S/D376E/W574L/E575Q): as the sequence (P17597 56-670 W574L/E575Q) above, with P142S, D321E counted along it
Sequence of AHAS WT (Arabidopsis thaliana, UniProt P17597, E575Q) (P17597 56-670 E575Q): as the sequence (P17597 56-670 W574L/E575Q) above, with L519W counted along it

| Molecule | Resistance Factor (AHAS W574L) | Resistance Factor (AHAS P197S) | Resistance Factor (AHAS P197S-D376E) | Resistance Factor (AHAS P197S-D376E-W574L) | Resistance Factor (AHAS P197S-W574L) | Resistance Factor (AHAS D376E) | Resistance Factor (AHAS D376E-W574L) | IC50 (AHAS P197S-D376E) [µM] | IC50 (AHAS P197S-D376E-W574L) [µM] | IC50 (AHAS WT [3]) [µM] | IC50 (AHAS P197S-W574L) [µM] | IC50 (AHAS D376E) [µM] | IC50 (AHAS D376E-W574L) [µM] | Km (AHAS enzymatic activity) [mM] | Vmax (AHAS enzymatic activity) [deltaOD550/min mg protein] | relative Vmax (AHAS enzymatic activity) | other results |
| --- | --- | --- | --- | --- | --- | --- | --- | --- | --- | --- | --- | --- | --- | --- | --- | --- | --- |
| COc1ncc(F)c2nc(S(=O)(=O)Nc3c(F)cccc3F)nn12 [Florasulam, florasulam] | 1738 | 28 | 2754 | >6918 | >6918 | 55 | >6918 |  |  |  |  |  |  |  |  |  | pI50 (AHAS W574L): 4.6; pI50 (AHAS P197S): 6.4; pI50 (AHAS P197S-D376E): 4.4; pI50 (AHAS WT [1]): 7.8; pI50 (AHAS P197S-D376E-W574L): <4; pI50 (AHAS P197S-W574L): <4; pI50 (AHAS D376E): 6.1; pI50 (AHAS D376E-W574L): <4 |
| COc1cc(OC)nc(NC(=O)NS(=O)(=O)c2cc(NC=O)ccc2C(=O)N(C)C)n1 [Foramsulfuron, foramsulfuron] | 5888 | 12 | >11748 | >11748 | >11748 | 3715 | >11748 | > 100 | > 100 | 0.00794 | > 100 | 31.6 | > 100 |  |  |  | inhibition of callus tissues [2]: clearly inhibitory |
| COc1cc(OC)nc(NC(=O)NS(=O)(=O)c2ncccc2C(=O)N(C)C)n1 [Nicosulfuron, nicosulfuron] | >607 | 6 | >607 | >607 | >607 | >607 | >607 | > 100 | > 100 | 0.158 | > 100 | > 100 | > 100 |  |  |  |  |
| COc1cc(OC)n2nc(NS(=O)(=O)c3c(C(F)(F)F)ccnc3OC)nc2n1 [Pyroxsulam, pyroxsulam] | >41368 | 261 | >41368 | >41368 | >41368 | 656 | >41368 |  |  |  |  |  |  |  |  |  | pI50 (AHAS W574L): <4; pI50 (AHAS P197S): 6.2; Percentage phytotoxicity ([4]; 9 DAA): 13.3%; Percentage phytotoxicity ([4]; 16 DAA): 16%; Percentage phytotoxicity ([4]; 24 DAA): 5%; Percentage phytotoxicity ([5]; 9 DAA): 10.7%; Percentage phytotoxicity ([5]; 16 DAA): 16%; Percentage phytotoxicity ([5]; 24 DAA): 10.7%; Percentage phytotoxicity ([6]; 9 DAA): 13.3%; Percentage phytotoxicity ([6]; 16 DAA): 17%; Percentage phytotoxicity ([6]; 24 DAA): 15%; Percentage phytotoxicity ([7]; 9 DAA): 76.7%; Percentage phytotoxicity ([7]; 16 DAA): 98%; Percentage phytotoxicity ([7]; 24 DAA): 98%; pI50 (AHAS P197S-D376E): <4; pI50 (AHAS WT [1]): 8.6; pI50 (AHAS P197S-D376E-W574L): <4; pI50 (AHAS P197S-W574L): <4; pI50 (AHAS D376E): 5.8; pI50 (AHAS D376E-W574L): <4 |
| CCS(=O)(=O)c1cccnc1S(=O)(=O)NC(=O)Nc1nc(OC)cc(OC)n1 [Rimsulfuron, rimsulfuron] | 447 | 18 | >4466 | >4466 | >4466 | 56 | >4466 | > 100 | > 100 | 0.02 | > 100 | 1.26 | > 100 |  |  |  |  |
| CCS(=O)(=O)c1nc2ccccn2c1S(=O)(=O)NC(=O)Nc1nc(OC)cc(OC)n1 [Sulfosulfuron, sulfosulfuron] | >4641 | 1848 | >4641 | >4641 | >4641 | 1166 | >4641 | > 100 | > 100 | 0.02 | > 100 | 25.1 | > 100 |  |  |  |  |
| B1 |  |  |  |  |  |  |  |  |  |  |  |  |  | 1.4 | 103.0 | 2.7 |  |
| B2 |  |  |  |  |  |  |  |  |  |  |  |  |  | 5.5 | 50.0 | 1.3 |  |
| B3 |  |  |  |  |  |  |  |  |  |  |  |  |  | 7 | 54.4 | 1.4 |  |
